# Legend:
# [1] = test system: SD rats; experiment: contrast-induced kidney injury; assay type: in vivo; settings: intragastric, 4 weeks; Irbesartan 50 mg/kg/d, samples 69.9 or 87.36 mg/kg (groups of b143 differ from the table)
# Description: Experimental animals: SD rats, 200 g to 250 g weight, SPF grade, half male and half female.
# (§1) Administration mode: intragastric administration.
# Experimental modeling: healthy male SD rats were selected, intramuscularly injected with furosemide (10 ml/kg) first, and then injected with a prostaglandin synthesis inhibitor (indomethacin, 10 mg/kg, dissolved in dimethyl sulfoxide, and diluted with 1.25% of NAHCO3 solution), a nitric oxide synthase inhibitor (N-nitro-L-arginine-methyl ester hydrochloride, L-NAME, 10 mg/kg, dissolved in 0.9% of NaCl solution) and 76% of meglumine diatrizoate by tail vein every 15 minutes.
# In animal models, the increase of serum creatinine exceeding the baseline by 50% was often used as the diagnostic criterion of acute kidney injury, that was, the success criterion of modeling.
# Drug groups and administration dosages: there were a normal group, a model group, a positive control drug group (Irbesartan 50 mg/kg/d), a sample group of Embodiment 2-1 (69.9 mg/kg), a sample group of Embodiment 3.1 (87.36 mg/kg), a sample group of Embodiment 7 (87.36 mg/kg), a sample group of Embodiment 9.1 (87.36 mg/kg) and a sample group of Embodiment 9.2 (87.36 mg/kg, the solids prepared according to Embodiment 9.2), with 15 rats in each group. […]
# [2] = compounds having five hydroxyl groups; cited from earlier work
# [3] = compared with the control group; cited from earlier work
# [4] = test system: db/db mice; experiment: db/db mice diabetic kidney disease model; assay type: in vivo; settings: samples 62.4 mg/kg, Dapagliflozin tablet 45.5 mg/kg
# Description: Animal model: db/db mice, 16 weeks old, and C57 BL/6 mice, 16 weeks old. Administration mode: intragastric administration. Experimental modeling: the db/db mice were raised for 17 weeks, and then urine protein was detected. When there were urine protein and renal function abnormality, the modeling was successful for later experiment. Experimental groups: there were a normal group of the C57 BL/6 mice, a model group of the db/db mice, a positive drug group (Dapagliflozin tablet, 45.5 mg/kg), a sample group prepared by the method of Embodiment 3-1 (62.4 mg/kg), a sample group prepared by the method of Embodiment 9.1 (62.4 mg/kg), and a sample group prepared by the method of Embodiment 2-A3 (62.4 mg/kg). There were 6 groups in total, with 15 mice in each group. After 4 weeks of administration, urine protein, urine creatinine and a daily food intake were detected, and a mouse state was observed.
# [5] = test system: diabetic kidney disease model, C57BL/6 mice; experiment: streptozotocin (STZ)+high-fat-fed diabetic kidney disease model; assay type: in vivo; settings: samples 62.4 mg/kg, Dapagliflozin tablet 45.5 mg/kg
# Description: Administration method: intragastric administration. Experimental modeling: after 3 days of adaptive feeding, the experimental mice were fed with high-fat and high-sugar feed (made by laboratory according to a formula of lard:sucrose:yolk:basic feed=18:20:3:59) for 8 consecutive weeks, and then intraperitoneally injected with an STZ sodium citrate solution according to a dosage of 100 mg/kg for 7 consecutive days. […] When the blood glucose was greater than 13.8 mmol/L, and there were urine protein and renal function abnormality, the modeling was successful. Experimental groups: there were a total of 6 groups, comprising a normal group, a model group, a positive drug group (Dapagliflozin tablet, 45.5 mg/kg), a sample group prepared by the method of Embodiment 2-1 (62.4 mg/kg), a sample group prepared by the method of Embodiment 6 (62.4 mg/kg) and a sample group prepared by the method of Embodiment 8 (62.4 mg/kg), with 15 mice in each group. After 4 weeks of administration, urine protein and urine creatinine were detected, and a daily food intake and a mouse state were calculated.
# [6] = test system: Brown-Norway rats; experiment: ocular blood flow and choroidal neovascularization after krypton laser photocoagulation; assay type: in vivo; settings: intragastric, after 4 weeks; Verteporfin 1.35 mg/kg, Embodiment 2-1 69.9 mg/kg, other samples 87.36 mg/kg
# Description: Experimental animals: rats, 150 g to 180 g weight, SPF grade, half male and half female.
# as §1
# Experimental modeling: healthy male Brown-Norway rats were selected and anesthetized by intramuscular injection of ketamine (50 mg/kg), pupils of the rats were dilated with a mixed mydriatic of 0.5% tropicamide and neofolin, and 8 points were photocoagulated between great retinal vessels around an optic disc at a distance 2 to 4 disc diameters away from the optic disc under a 120D special front lens by a krypton yellow laser (Lumenis Company in the United States) (wavelength 568 nm, and parameters: spot diameter […], exposure time 0.1 second, and power 150 mW to 200 mW). […]
# Drug groups and administration dosages: there were a normal group, a model group, a positive control drug group (Verteporfin 1.35 mg/kg), a sample group of Embodiment 2-1 (69.9 mg/kg), a sample group of Embodiment 3.1 (87.36 mg/kg), a sample group of Embodiment 7 (87.36 mg/kg), a sample group of Embodiment 9.1 (87.36 mg/kg) and a sample group of Embodiment 9.2 (87.36 mg/kg, solids prepared according to Embodiment 9.2), with 15 rats in each group. After 4 weeks of administration, an inhibition rate of choroidal blood flow and an area of choroidal neovascularization of eyes were detected.
# [7] = test system: Kunming mice; experiment: bleomycin-induced idiopathic pulmonary fibrosis; assay type: in vivo; settings: HE staining, four grades, 28 days; Rosiglitazone 5 mg/kg, samples 70 mg/kg, Huangkui Capsule 180 mg/kg based on the extract
# Description: Experimental animals: 60 Kunming mice, half male and half female, 18 g to 22 g weight, clean grade.
# Animal groups: the mice were randomly divided into 6 groups, which comprise a normal group, a model group, a drug control group (5 mg/kg of Rosiglitazone), a sample group prepared by the method of Embodiment 2-A3 (70 mg/kg), a sample group prepared by the method of Embodiment 9.2 (70 mg/kg) and a Huangkui Capsule sample group (180 mg/kg based on the extract), with 10 mice in each group.
# Experimental modeling: after 3 days of adaptive feeding, the experimental mice were anesthetized by intraperitoneal injection with 4% chloral hydrate (0.01 ml/g). Taking a supine fixed position, routine disinfection was carried out, a median cervical incision was made, and a trachea was exposed by passive separation. The model group, the control group and the treatment group were slowly injected with bleomycin (5 mg/kg) into a space between tracheal cartilaginous rings, and the normal control group was injected with the same volume of normal saline. The mice were immediately rotated upright for 3 minutes to 5 minutes after the injection, so that the liquid medicine was evenly distributed in both lungs, then skin of the mice was sutured and disinfected at a suture, and the mice after waking were sent to a clean grade observation room for feeding. […]
# [8] = test system: MRL/lpr mice; experiment: lupus erythematosus nephritis; assay type: in vivo; settings: Dexamethasone 1 mg/kg, Embodiment 2-B 69.9 mg/kg, other samples 87.36 mg/kg
# Description: 26 male MRL/lpr mice (lupus erythematosus nephritis mice) were selected as an observation group 1, with 18 g to 22 g weight and 13 weeks old, which were purchased from Nanjing Junke Bioengineering Co., Ltd., and 24 male C57BL/6 mice were selected as a normal group, with 18 g to 22 g weight and 13 weeks old, which were purchased from Wuhan Hualianke Biotechnology Co., Ltd.
# The mice were administrated for 4 weeks.
# After administration, 24-hour urine was collected to detect urine protein. After the urine was collected, eyeballs of all the mice were taken for blood collection, and the collected blood was centrifuged to obtain serum for antinuclear antibody detection. Meanwhile, kidneys of the mice were taken out, quickly frozen in liquid nitrogen, and stored in a refrigerator at −80° C. for kidney immune detection.
molecule,measurement,setting,value
CCCCC1=NC2(CCCC2)C(=O)N1Cc1ccc(-c2ccccc2-c2nnn[nH]2)cc1 [Irbesartan],Serum creatinine,[1],16.67 ± 1.23
same,Serum urea nitrogen,[1],3.01 ± 0.98
O=c1c(O)c(-c2ccc(O)c(O)c2)oc2cc(O)cc(O)c12 [quercetin],effect on ocular blood flow,[2],negative effect
OC[C@H]1O[C@@H](c2ccc(F)c(Cc3cc4ccccc4s3)c2)[C@H](O)[C@@H](O)[C@@H]1O [Ipragliflozin],serum uric acid level,[3],significantly reduces
CCOc1ccc(Cc2cc([C@@H]3S[C@H](CO)[C@@H](O)[C@H](O)[C@H]3O)c(OC)cc2C)cc1 [Luseogliflozin],serum uric acid level,[3],significantly reduces
CCc1ccc(Cc2ccc3c(c2)[C@]2(OC3)O[C@H](CO)[C@@H](O)[C@H](O)[C@H]2O)cc1 [Tofogliflozin],serum uric acid level,[3],significantly reduces
"CCOc1ccc(Cc2cc([C@@H]3O[C@H](CO)[C@@H](O)[C@H](O)[C@H]3O)ccc2Cl)cc1 [Dapagliflozin tablet, Dapagliflozin]",Urine albumin-to-creatinine ratio/,"[4]; intragastric, after 4 weeks",1.17 ± 1.26
same,Urine protein/mg,"[4]; intragastric, after 4 weeks",15.09 ± 10.27 mg
same,Abdominal distension/number of mice,"[4]; of 15 mice per group, 4 weeks",0 number of mice
same,Diarrhea/number of mice,"[4]; of 15 mice per group, 4 weeks",0 number of mice
same,Urine albumin-to-creatinine ratio,"[5]; intragastric, after 4 weeks of administration",1.04 ± 1.09
same,Urine protein/mg,"[5]; intragastric, after 4 weeks of administration, 15 mice per group",17.51 ± 12.34 mg
same,Abdominal distension/number of mice,"[5]; of 15 mice per group, 4 weeks",0 number of mice
same,Diarrhea/number of mice,"[5]; of 15 mice per group, 4 weeks",0 number of mice
Cc1ccc([C@@H]2O[C@H](CO)[C@@H](O)[C@H](O)[C@H]2O)cc1Cc1ccc(-c2ccc(F)cc2)s1 [Canagliflozin],serum uric acid level,[3],significantly reduces
Verteporfin,Area of choroidal angiogenesis/μm^2,[6],19.80 ± 1.23^# μm^2
same,Ocular choroidal blood flow inhibition ratio,[6],87.98 ± 11.23
OC[C@H]1O[C@@H](c2ccc(Cl)c(Cc3ccc(O[C@H]4CCOC4)cc3)c2)[C@H](O)[C@@H](O)[C@@H]1O [Empagliflozin],serum uric acid level,[3],significantly reduces
CN(CCOc1ccc(CC2SC(=O)NC2=O)cc1)c1ccccn1 (stereo not drawn) [Rosiglitazone],Degree of pulmonary alveolitis,[7],1.03 ± 0.49
same,Degree of pulmonary fibrosis,[7],1.15 ± 0.81
C[C@@H]1C[C@H]2[C@@H]3CCC4=CC(=O)C=C[C@]4(C)[C@@]3(F)[C@@H](O)C[C@]2(C)[C@@]1(O)C(=O)CO [Dexamethasone],Urine protein,[8]; 24-hour urine after 4 weeks,11.67 ± 3.45
same,C3 level of kidney,[8]; kidney tissue after 4 weeks,1.21 ± 0.67
same,IgG level of kidney,[8]; kidney tissue after 4 weeks,1.32 ± 0.67
same,Logarithm of antinuclear antibody titers,[8]; serum after 4 weeks,0.81 ± 0.11

# — patent publication US20250195598A1, “FLAVONOID ACTIVE FRACTION OF AN ABELMOSCHI COROLLA, PREPARATION METHOD AND APPLICATION THEREOF” (SUZHONG PHARMACEUTICAL GROUP CO., LTD., priority 2022, published 2025)
